Assay results reported in US20170258722A1, “ENCAPSULATING LIPOSOMES” (priority 2012, published 2017).

Procedure: Chloroform was removed by flash evaporation and the lipid mixture was dissolved in 1 ml of warm tert-butanol (also referred to as t-butanol). The tert-butanol solution of lipid was then frozen rapidly by immersing the tube in a mixture of isopropanol and dry ice. […] The excess sulfuric acid was then neutralized by adding an appropriate volume of 5 M sodium hydroxide alone or with phosphate buffer. […] After drug loading, the mixture was diluted with 0.9% w/v sodium chloride and sedimented in an ultracentrifuge for 1 hour at 30,000×g. The supernatant was carefully removed and the pellet was re-suspended in a small volume of 0.9% w/v NaCl.
First, DPPC/cholesterol films were lyophilized from t-butanol-treated lipid films. […] Liposomes were sedimented by centrifugation at 30,000 rpm for 0.5 hour to remove any unencapsulated drug.
To measure the encapsulated contents of the liposomes, the liposomes were washed in 0.9% NaCl solution and solubilized with 1:3:1 NaCl:methanol:chloroform.

CCN(CC)CCCC(C)Nc1ccnc2cc(Cl)ccc12 (centres unmarked) [chloroquine]
Drug Loading (% of Added) (Table 2, DPPC:Cholesterol 2:1 liposomes, 0.375M sulfuric acid, phosphate buffered loading): 100 % of Added
loaded using the acid loading methodology (sulfuric acid 0.375 M, 6 mg buprenorphine, 33 mg chloroquine added): 100%
